Measured values published in PubChem BioAssay (NCI).
Several values for one entry are separate records, joined by “and”; a condition that tells them apart may be missing. Equal entries are not always repeated.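 How tested: cells in 96-well plates exposed to compound for 48 hours at five concentrations. GI50 is the concentration that inhibits growth by half. Definition used: TGI = concentration required for complete inhibition of growth.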

What was measured:
Test in all cases: NCI tumour cell line growth inhibition, 48 h
[1] = system: HOP-92 NSCLC
[2] = system: KM12 colon
[3] = system: M14 melanoma
[4] = system: MDA-MB-231 breast
[5] = system: NCI-H226 lung
[6] = system: NCI-H460 lung
[7] = system: OVCAR-5 ovarian
[8] = system: SF-295 CNS
[9] = system: SK-MEL-28 melanoma
[10] = system: SK-OV-3 ovarian

Compound	GI50 [1]	TGI [1]	GI50 [2]	TGI [2]	GI50 [3]	TGI [3]	GI50 [4]	TGI [4]	GI50 [5]	TGI [5]	GI50 [6]	TGI [6]	GI50 [7]	TGI [7]	GI50 [8]	TGI [8]	GI50 [9]	TGI [9]	GI50 [10]	TGI [10]
CCN(CC)CCOc1nc2ccc(OC)cc2c2c1-c1ccc(OC)cc1C2=O	786 nM	5360 nM	519 nM	1770 nM	1420 nM	3100 nM	1540 nM	4100 nM	870 nM	3060 nM	371 nM	1430 nM	1870 nM	7200 nM	519 nM	1740 nM	1810 nM	3240 nM	2880 nM	14800 nM
C[C@@H]1C[C@@H](O)[C@]2(O)O[C@@H]3C[C@@]4(C=O)[C@@H](CC[C@@H]5[C@@H]4CC[C@]4(C)[C@@H](C6=CC(=O)OC6)CC[C@]54O)C[C@H]3O[C@@H]2O1	135 nM	234 nM and 683 nM	72.2 nM and 34.6 nM	476 nM and 217 nM and 608 nM	89.1 nM and 32.4 nM	74 nM and 232 nM and 200 nM	–	236 nM	188 nM and 33.3 nM	85.7 nM and 529 nM and 116 nM	22.9 nM	19.5 nM and 81.7 nM and 19.2 nM	119 nM and 65.2 nM	102 nM and 299 nM and 194 nM	36.5 nM and 8.69 nM	61.6 nM and 189 nM and 139 nM	167 nM and 40.9 nM	143 nM and 683 nM and 354 nM	63.6 nM and 17.3 nM	–
COc1ccc2c(c1)/C(=C\c1c(C)nc3sc(C)cn13)C(=O)N2C	7420 nM	37000 nM	4870 nM	43400 nM	4990 nM	61100 nM	4590 nM	65000 nM	2740 nM	15900 nM	3540 nM	36600 nM	19900 nM	> 100000 nM	2250 nM	6880 nM	7260 nM	35500 nM	2350 nM	7180 nM
CN1CC[C@@H](c2c(O)cc(O)c3c(=O)cc(-c4ccccc4Cl)oc23)[C@@H](O)C1	104 nM	517 nM and 1870 nM	51.1 nM	26600 nM	77.1 nM and 27.8 nM	225 nM and 226 nM and 104 nM	168 nM	613 nM and 2860 nM	52.2 nM	301 nM and 821 nM	68.1 nM and 69.3 nM	–	80.1 nM and 146 nM	–	99.4 nM and 95.5 nM and 42.5 nM	–	101 nM and 90.2 nM	294 nM and 1450 nM	201 nM and 428 nM	> 100000 nM
COc1cc2c3c(n(C)c(=O)c2cc1OC)-c1cc2c(cc1/C3=C\CCCCCN)OCO2	4030 nM	29000 nM	< 10 nM	90100 nM	2550 nM	> 46600 nM	2500 nM	12900 nM	601 nM	13700 nM	130 nM	21700 nM	8660 nM	> 52900 nM	887 nM	> 42400 nM	33700 nM	> 100000 nM	8620 nM	44700 nM
COc1ccc2c(c1)[nH]c(=O)c1c3cc(C)c(C)cc3cn21	485 nM	2320 nM	29.2 nM	109 nM	< 10 nM	1200 nM	29.1 nM	1530 nM	389 nM	21700 nM	< 18 nM	1020 nM	56.1 nM	2920 nM	< 10 nM	–	< 10 nM	1910 nM	< 19.4 nM	4590 nM
C=CCn1c2c(c3ccccc3c1=O)C(=O)c1ccccc1-2	–	> 100000 nM	–	> 100000 nM	–	> 100000 nM	–	> 100000 nM	–	> 100000 nM	–	> 100000 nM	–	> 100000 nM	–	> 100000 nM	–	> 100000 nM	–	> 100000 nM
CN1CCN(CN2C(=O)C3C4C=CC(C3C2=O)C2C3C(=O)N(CN5CCN(C)CC5)C(=O)C3C42)CC1 (stereo not drawn)	35700 nM and > 96500 nM and > 100000 nM	94800 nM and > 100000 nM	–	41700 nM and 51900 nM and > 100000 nM	–	30800 nM and 34200 nM and 40800 nM	–	56800 nM	33500 nM and > 57700 nM and 76800 nM	> 100000 nM	–	32300 nM and 37900 nM and 27300 nM	–	> 100000 nM	32200 nM and 86200 nM and 49200 nM	97400 nM and > 100000 nM	–	49300 nM and > 61800 nM and 35300 nM	37400 nM and 34100 nM and 80100 nM	> 100000 nM
COc1cc(-c2nn(-c3ccc(NC(=O)c4ccc(Cl)c(Cl)c4)cc3)cc2-c2ccncc2)ccc1Cl	> 100000 nM	> 100000 nM	5970 nM	> 100000 nM	22400 nM	> 100000 nM	3660 nM	> 100000 nM	> 100000 nM	> 100000 nM	4170 nM	> 100000 nM	> 100000 nM	> 100000 nM	1940 nM	4570 nM	40300 nM	> 100000 nM	> 100000 nM	> 100000 nM
COc1cc(/C(C#N)=C/c2ccc3c(c2OC)OCO3)cc2c1OCO2	211 nM	15700 nM	42.4 nM	> 100000 nM	47.7 nM	7810 nM	753 nM	19400 nM	603 nM	36400 nM	45.2 nM	14200 nM	823 nM	> 80200 nM	42.8 nM	4360 nM	1240 nM	> 100000 nM	113 nM	14200 nM
COc1cc(O)c([C@@H]2C[C@H](CCc3ccc(O)cc3)O[C@H](c3ccc(O)cc3)C2)c(O)c1C(=O)/C=C/c1ccc(O)cc1	2200 nM	4960 nM	9830 nM	> 35000 nM	3240 nM	9300 nM	2500 nM	6230 nM	7040 nM	21500 nM	2710 nM	7490 nM	3810 nM	12500 nM	3830 nM	17900 nM	3280 nM	12000 nM	2740 nM	6110 nM
